Laboratory results taken from publication PMC12694606, “DNA-programmed bispecific peptide assemblies for delivering cytotoxic payload to cells expressing EGFR and MET receptors” (RSC Chemical Biology, 2025).
Non-standard residues stand in square brackets, D forms with d. Residues, ends and D or L forms follow the SMILES beside them. *: point of attachment. Dolaproine = CO[C@@H]([C@@H]1CCCN1)[C@@H](C)C(=O)O; Dil = CC[C@H](C)[C@H](NC)[C@@H](CC(=O)O)OC; X1 = C[C@@H](N*)[C@@H](O)c1ccccc1; NMeV = CN[C@H](C(=O)O)C(C)C

Tested on: A549 cells (EGFR+, MET+)
Experiment: AlamarBlue cell viability assay, A549 cells
Description: Fig. 5 (a) Arming DNA-template strands in OS21 and OS21+3 with the toxin vcMMAE. […] Viability was normalized to PBS treatment (100% value) and ethanol treatment (0% value). Conditions: 10^4 cells per well in 100 µL medium and propagated 24 h to a confluency of ca. 85% cells, probes were incubated for 10 min in PBS, 37 °C, 5% CO2; AlamarBlue assay in full medium, 6 h.
A549 cells were incubated with the oligonucleotide assemblies for ten minutes. Cell viability was assessed six hours later using an AlamarBlue assay. […] For comparison, we assessed the viability response to treatment with MMAE at a 100 nM concentration in unconjugated form. […] Next, the cells were treated in the presence of HGF.
A549 cells were seeded into wells of a 96 well-microtiter plate (100 μL in respective medium)
at a density of 10 4 cells/well. Cells were allowed to grow for 24 h to a confluency of ca. 85%.
The medium was removed and wells carefully washed once with PBS (preheated at 37°C). The
probes were added at specific concentrations in PBS with or without HGF (100 ng/mL). The
cells were incubated at 37°C, 5% CO 2 for 10 minutes. After one careful wash with PBS, 10%
alamar blue was added, and the fluorescence signal (590 nm) was recorded after 6 hours using
Cytotoxicity of cathepsin B-cleavable vcMMAE-DNA-peptide complex with different […]

Molecule | cell viability, control experiments (in words) (Fig. S17, 10 min in PBS, AlamarBlue 6 h) | cell viability (100 nM, unconjugated form, 10 min in PBS, AlamarBlue 6 h (Fig. S17)) [%]
HGF: hepatocyte growth factor, used at 100 ng/mL to induce MET internalization | unaffected | –
CC[C@H](C)[C@@H]([C@@H](CC(=O)N1CCC[C@H]1[C@H](OC)[C@@H](C)C(=O)N[C@H](C)[C@@H](O)c1ccccc1)OC)N(C)C(=O)[C@@H](NC(=O)[C@@H](NC)C(C)C)C(C)C [MMAE, monomethyl auristatin E] (H-[NMeV]V[Dil][Dolaproine]-X1) | – | 79
